The text below walks through data of patent US8975400B2, “2,3-dihydroimidazo[1, 2-c] pyrimidin-5(1 H)-one compounds use as LP-PLA2 inhibitors” (Glaxo Group Limited, priority 2011, dated 2015).

Structures can show the parent of a compound that is named as a salt.

Assay [1] has as its target T1, recombinant human Lp-PLA2 (Homo sapiens, UniProt Q13093).
T1 sequence (Q13093 22-441): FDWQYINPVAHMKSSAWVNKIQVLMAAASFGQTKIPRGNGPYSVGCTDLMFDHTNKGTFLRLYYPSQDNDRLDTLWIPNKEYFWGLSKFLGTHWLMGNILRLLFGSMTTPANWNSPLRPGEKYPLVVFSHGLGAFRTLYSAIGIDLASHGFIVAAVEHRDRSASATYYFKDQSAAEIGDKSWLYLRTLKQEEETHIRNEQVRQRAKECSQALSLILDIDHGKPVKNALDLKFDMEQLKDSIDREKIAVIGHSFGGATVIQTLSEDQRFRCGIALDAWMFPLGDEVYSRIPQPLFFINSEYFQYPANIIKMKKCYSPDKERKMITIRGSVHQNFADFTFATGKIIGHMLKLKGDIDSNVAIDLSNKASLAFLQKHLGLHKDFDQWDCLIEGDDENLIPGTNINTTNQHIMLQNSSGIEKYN
In words: Recombinant human Lp-PLA2 assay (rhLp-PLA2, PED6 assay). Format: biochemical. The following applies: recombinant human Lp-PLA2, PED6 substrate; upper limit for pIC50 in this assay is 9.3. An excerpt:
(1) Recombinant Human Lp-PLA2 Assay (rhLp-PLA2) (Also Referred to as “PED6” Assay)
N-((6-(2,4-dinitrophenyl)amino)-hexanoyl)-2-(4,4-difluoro-5,7-dimethyl-4-bora-3a,4a-diaza-s-indacene-3-pentanoyl)-1-hexadecanoyl-sn-glycero-3-phosphoethanolamine, triethylammonium salt (PED6) is a commercially available fluorescently-labeled phospholipid, which is commercially available from Invitrogene and Molecular Probes. There is a quenching […] and a Bodipy fluorescein (FL) group in the sn2 position. Upon cleavage with Lp-PLA2, the Bodipy FL group is liberated and then may result in an increase in fluorescence. Inhibitors of Lp-PLA2 therefore prevent this cleavage and no fluorescent increase is observed.
The PED6 assay was run as an unquenched 10 μL assay. The source plate containing the compounds to be tested was prepared by making 1:3 (by volume) serial dilution of the compounds within DMSO on 384-well microplate. Then, 0.01 μL of the compounds on compound source plate were transferred into 384 well Greiner 784076 (black) plates using ECHO liquid dispenser. 5 µL of recombinant human Lp-PLA2 enzyme (4 nM (or 110 pM) rhLp-PLA2 in assay buffer of 50 mM HEPES, pH 7.4, 150 mM NaCl, 1 mM CHAPS) was added to each well of the plate. Plates were centrifuged for 10 sec at 500 rpm. After 30 minutes preincubation, 5 µL of substrate (4 μM (or 5 μM) PED6 [from 5 mM DMSO stock] in assay buffer of 50 mM HEPES, pH 7.4, 150 mM NaCl, 1 mM CHAPS) was added to 384 well Greiner 784076 (black) plates. Plates were centrifuged for 10 sec at 500 rpm. The plate was covered to protect it from light and incubated for 20 min at room temperature. The plates were read for fluorescence intensity at ex: 480/em: 540 using ViewLux microplate imager for Envision spectrofluroimeters pIC50 data, curve and QC analysis was conducted by using XL fit module in Excel.
The compounds described below were tested generally according to the PED6 assay described above.

In assay [2] the target is T2, Lp-PLA2 in human plasma (Homo sapiens, UniProt Q13093).
T2 construct: This assay may detect the activity of Lp-PLA2 in human plasma; from tissue; host or cells: pooled human plasma
T2 sequence (Q13093 22-441): T1 sequence (Q13093 22-441)
Description: Lp-PLA2 human plasma assay (Thio-PAF assay). The assay is classed as biochemical. The conditions noted are these: pooled human plasma, 2-thio-PAF substrate; read-out: pIC50 in the thio-PAF assay (converted). From the text: (3) Lipoprotein-Associated Phospholipase A2 (Lp-PLA2) Human Plasma Assay (Also Referred to as “Thio-PAF Assay”)
The human plasma assay utilizes a thioester analog of PAF (phosphatidylcholine), where hydrolysis yields to the formation of a phospholipid containing a free thiol group. The amount of thiol is quantitated continuously by reacting with CPM (7-diethylamino-3-(4′-maleimidylphenyl)-4-methylcoumarin), a maleimide which increases in fluoresence after Michael addition of thiols. This assay may detect the activity of Lp-PLA2 in human plasma, as determined by specific inhibition by Lp-PLA2 inhibitors.
The thio-PAF assay was run as a quenched 15 μL assay. Compounds source plate was prepared by making 1:3 (by volume) serial dilution of the compounds into pure DMSO on 384-well microplate. 0.01 μL of compounds on compound source plate were transferred to 384 well Greiner 784076 (black) low-volume plates by ECHO liquid dispenser. 8 μL pooled human plasma, which was previously aliquoted and frozen, was added. Plates were centrifuged for 10 sec at 500 rpm. After 30 minutes preincubation, 2 μL of substrate solution comprising 2.5 mM 2-thio-PAF [from ethanol stock], 32 μM CPM [from a DMSO stock] and 3.2 mM NEM (N-ethylmaleimide) [made fresh daily in DMSO] in assay buffer of 50 mM HEPES, pH 7.4, 150 mM NaCl, 1 mM CHAPS was added to 384 well Greiner 784076 (black) low-volume plates by BRAVO liquid handling station. After 2 mins, reaction was quenched with 5 μL of 5% aqueous trifluoroacetic acid (TFA). Plates were covered to protect from light and incubated for 40 min at room temperature. Plates were read at ex: 380/em: 485 using-Envision microplate reader. pIC50 data, curve and QC analysis was conducted by using XLFit module in Excel.

As for `N#Cc1cc(COc2cc3n(c(=O)n2)CCN3)ccc1Oc1ccc(C#N)c(C(F)(F)F)c1` [Example 88, 4-(2-cyano-4-(((5-oxo-1,2,3,5-tetrahydroimidazo[1,2-c]pyrimidin-7-yl)oxy)methyl)p-henolxy)-2-(trifluoromethyl)benzonitrile], the IC50 in assay [1] was 0.002 µM; in assay [2], ≤ 0.1 µM. Taken in the same sequence, the figures for `O=c1nc(OCc2ccc(Oc3ccc(Cl)c(C(F)(F)F)c3)cc2)cc2n1CCN2` [Example 89, 7-((4-(4-chloro-3-(trifluoromethyl)phenoxy)benzyl)oxy)-2,3-dihydroimidazo[1,2-c]pyrimidin-5(1H)-one] were ≤ 0.01 µM and ≤ 1 µM.

`N#Cc1cc(COc2cc3n(c(=O)n2)CCN3)ccc1Oc1ccnc(C(F)(F)F)c1` [Example 91, 5-(((5-oxo-1,2,3,5-tetrahydroimidazo[1,2-c]pyrimidin-7-yl)oxy)methyl)-2-((2-(trifluoromethyl)pyridin-4-yl)oxy)benzonitrile]: the IC50 is ≤ 0.01 µM in assay [1] and ≤ 0.1 µM in assay [2]. For `N#Cc1cc(COc2cc3n(c(=O)n2)CCN3)ccc1Oc1ccc(C(F)(F)F)nc1` [Example 93, 5-(((5-oxo-1,2,3,5-tetrahydroimidazo[1,2-c]pyrimidin-7-yl)oxy)methyl)-2-((6-(trifluoromethyl)pyridin-3-yl)oxy)benzonitrile, trifluoroacetic acid salt] the same measures were ≤ 0.01 µM and ≤ 0.1 µM. For `CN1CCn2c1cc(OCc1ccc(Oc3ccnc(C(F)(F)F)c3)c(F)c1)nc2=O` [Example 94, 7-((3-fluoro-4-((2-(trifluoromethyl)pyridin-4-yl)oxy)benzyl)oxy)-1-methyl-2,3-dihydroimidazo[1,2-c]pyrimidin-5(1H)-one] the same measures were 0.00158 µM and ≤ 0.1 µM.

Regarding `CN1CCn2c1cc(OCc1ccc(Oc3ccc(C#N)c(F)c3)c(C#N)c1)nc2=O` [Example 95, 4-(2-cyano-4-(((1-methyl-5-oxo-1,2,3,5-tetrahydroimidazo[1,2-c]pyrimidin-7-yl)oxy)methyl)phenoxy)-2-fluorobenzonitrile], the IC50 in assay [1] was 0.00126 µM; in assay [2], ≤ 0.1 µM. Consider `N#Cc1cc(COc2cc3n(c(=O)n2)CCN3)ccc1Oc1ccc(Cl)c(C(F)(F)F)c1` [Example 96, 2-(4-chloro-3-(trifluoromethyl)phenoxy)-5-(((5-oxo-1,2,3,5-tetrahydroimidazo[1,2-c]pyrimidin-7-yl)oxy)methyl)benzonitrile], for which the IC50 was ≤ 0.01 µM in assay [1] and ≤ 0.1 µM in assay [2].

`CN1CCn2c1cc(OCc1cc(F)c(Oc3cc(F)cc(F)c3)c(F)c1)nc2=O` [Example 99, 7-((4-(3,5-difluorophenoxy)-3,5-difluorobenzyl)oxy)-1-methyl-2,3-dihydroimida-zo[1,2-c]pyrimidin-5(1H)-one]: the results for the IC50 in assay [1] and in assay [2] were ≤ 0.01 µM and ≤ 1 µM, respectively. Consider `CN1CCn2c1cc(OCc1ccc(Oc3ccc(Cl)nc3)c(C#N)c1)nc2=O` [Example 100, 2-((6-chloropyridin-3-yl)oxy)-5-(((1-methyl-5-oxo-1,2,3,5-tetrahydroimidazo[1,2-c]pyrimidin-7-yl)oxy)methyl)benzonitrile], for which the IC50 was ≤ 0.01 µM in assay [1] and ≤ 1 µM in assay [2].

Consider `CN1CCn2c1cc(OCc1ccc(Oc3ccc(Cl)c(C(F)(F)F)c3)c(C#N)c1)nc2=O` [Example 101, 2-(4-chloro-3-(trifluoromethyl)phenoxy)-5-(((1-methyl-5-oxo-1,2,3,5-tetrahydro-imidazo[1,2-c]pyrimidin-7-yl)oxy)methyl)benzonitrile, trifluoroacetic acid salt], for which the values for the IC50 in assay [1] and in assay [2] were ≤ 0.001 µM and ≤ 0.1 µM, respectively. As to `CN1CCn2c1cc(OCc1cc(F)c(Oc3cccc(C(F)(F)F)c3)c(F)c1)nc2=O` [Example 102, 7-((3,5-difluoro-4-(3-(trifluoromethyl)phenoxy)benzyl)oxy)-1-methyl-2,3-dihydroimidazo[1,2-c]pyrimidin-5(1H)-one], the results for the IC50 in assay [1] and in assay [2] were ≤ 0.001 µM and ≤ 0.1 µM, respectively. Taken in the same sequence, the figures for `CN1CCn2c1cc(OCc1ccc(Oc3ccc(Cl)nc3)c(F)c1)nc2=O` [Example 103, 7-((4-((6-chloropyridin-3-yl)oxy)-3-fluorobenzyl)oxy)-1-methyl-2,3-dihydroimid-azo[1,2-c]pyrimidin-5(1H)-one, trifluoroacetic acid salt] were ≤ 0.01 µM and ≤ 0.1 µM. For `CN1CCn2c1cc(OCc1cc(F)c(Oc3cccc(C#N)c3)c(F)c1)nc2=O` [Example 104, 3-(2,6-difluoro-4-(((1-methyl-5-oxo-1,2,3,5-tetrahydroimidazo[1,2-c]pyrimidin-7-yl)oxy)methyl)phenoxy)benzonitrile] the same measures were ≤ 0.01 µM and ≤ 1 µM. For the compound `CN1CCn2c1cc(OCc1ccc(Oc3ccnc(Cl)c3)c(C#N)c1)nc2=O` [Example 107, 2-((2-chloropyridin-4-yl)oxy)-5-(((1-methyl-5-oxo-1,2,3,5-tetrahydroimidazo[1,2-c]pyrimidin-7-yl)oxy)methyl)benzonitrile], the IC50 is ≤ 0.01 µM in assay [1] and ≤ 1 µM in assay [2].

Take `CN1CCn2c1cc(OCc1ccc(Oc3ccnc(Cl)c3)c(F)c1)nc2=O` [Example 109, 7-((4-((2-chloropyridin-4-yl)oxy)-3-fluorobenzyl)oxy)-1-methyl-2,3-dihydroimidaz-o[1,2-c]pyrimidin-5(1H)-one]: the IC50 in assay [1] was ≤ 0.01 µM; in assay [2], ≤ 1 µM. `CN1CCn2c1cc(OCc1ccc(Oc3cc(F)cc(F)c3)c(C#N)c1)nc2=O` [Example 111, 2-(3,5-difluorophenoxy)-5-(((1-methyl-5-oxo-1,2,3,5-tetrahydroimidazo[1,2-c]pyri-midin-7-yl)oxy)methyl)benzonitrile]: the IC50 in assay [1] is ≤ 0.01 µM; in assay [2], ≤ 1 µM. With `CN1CCn2c1cc(OCc1ccc(Oc3ccc(Cl)c(C#N)c3)c(C#N)c1)nc2=O` [Example 114, 2-chloro-5-(2-cyano-4-(((1-methy-5-oxo-1,2,3,5-tetrahydroimidazo[1,2-c]pyrimidin-7-yl)oxy)methyl)phenoxy)benzonitrile], the values for the IC50 in assay [1] and in assay [2] were ≤ 0.01 µM and ≤ 0.1 µM, respectively. Turning to `CN1CCn2c1cc(OCc1ccc(Oc3cccc(C#N)c3)c(F)c1)nc2=O` [Example E63, 3-(2-fluoro-4-(((1-methyl-5-oxo-1,2,3,5-tetrahydroimidazo[1,2-c]pyrimidin-7-yl)oxy)methyl)phenoxy)benzonitrile, trifluoroacetic acid salt], the IC50 in assay [1] is ≤ 0.01 µM.

Regarding `O=c1nc(OCc2cc(F)c(Oc3ccc(F)cc3)c(F)c2)cc2n1CCN2` [Example E74, 7-((3,5-difluoro-4-(4-fluorophenoxy)benzyl)oxy)-2,3-dihydroimidazo[1,2-c]pyrimidin-5(1H)-one], the IC50 in assay [1] is ≤ 0.01 µM.
